In patent US8415359B2, “Phenylpyrrole derivative” (Daiichi Sankyo Company, Limited, priority 2008, dated 2013):

biological target: T1, human pancreatic GK (human glucokinase variant 1, GST-fused protein) (Homo sapiens, UniProt P35557); assay: GK activity test (GK activation rate); format: biochemical; conditions: test compound 1 μM; glucose 5 mM; 30 min at room temperature; absorbance at 340 nm with test compound / without test compound
T1 construct: made in house; host or cells: Escherichia coli (such as BL21 or JM109)
T1 sequence (P35557 1-465): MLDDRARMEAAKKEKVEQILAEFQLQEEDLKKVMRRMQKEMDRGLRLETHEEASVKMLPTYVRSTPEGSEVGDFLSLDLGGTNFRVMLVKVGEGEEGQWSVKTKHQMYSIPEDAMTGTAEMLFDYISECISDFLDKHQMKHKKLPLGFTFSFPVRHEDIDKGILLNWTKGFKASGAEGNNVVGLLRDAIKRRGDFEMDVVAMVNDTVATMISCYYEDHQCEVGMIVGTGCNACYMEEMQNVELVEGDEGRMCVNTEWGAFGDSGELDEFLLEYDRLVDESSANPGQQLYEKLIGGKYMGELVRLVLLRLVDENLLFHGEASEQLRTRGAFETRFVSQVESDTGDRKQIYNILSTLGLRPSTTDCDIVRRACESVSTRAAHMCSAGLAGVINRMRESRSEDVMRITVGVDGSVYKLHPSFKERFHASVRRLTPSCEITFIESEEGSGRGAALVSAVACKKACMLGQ
Procedure: cDNA encoding human pancreatic GK polypeptide (GenBank Accession No. NM_000162, human glucokinase variant 1) was cloned from a human cDNA library by polymerase chain reaction (PCR), and introduced into a glutathione S-transferase (GST)-fused protein expression vector (GEX4T, GE Healthcare Bioscience). The vector was introduced into Escherichia coli (such as BL21 or JM109, Invitrogen), and the transformed E. coli was cultured overnight at 37° C. followed by recovery of the cells. After freezing and thawing the recovered cells, the cells were suspended in phosphate buffer containing Triton-X at a final concentration of 1% followed by disrupting the cells with an ultrasonic homogenizer. The supernatant obtained by low-speed centrifugation treatment of the homogenate (10,000×g, 30 minutes) was further subjected to high-speed centrifugation (100,000×g, 10 minutes) followed by recovering the supernatant and purifying the fused protein using a GST fused protein purification system (Bulk GST Purification Module, GE Healthcare Bioscience). The GK fused protein was divided into smaller aliquots and stored at −80° C.
GK activity was measured using the GK purified in (1) above. More specifically, an enzyme solution was prepared by adding the purified GK of (1) above and glucose-6-phosphate dehydrogenase (Sigma) to solution 1 of a glucose assay kit (D-Glucose UV Method, Roche Diagnostics). The enzyme solution, a test compound diluent and glucose (final concentration: 5 mM) were mixed in a 96-well ELISA plate, and allowed to react for 30 minutes at room temperature. Following completion of the reaction, absorbance at a wavelength of 340 nm was measured using SpectraMax Plus (Molecular Probe). Furthermore, unreacted (when glucose was not added) absorbance was used for the background.
GK activation rates were indicated with values represented by the following numerical formula: (absorbance after reacting for 30 minutes when test compound added)/(absorbance after reacting for 30 minutes when test compound not added).

| Structure (SMILES) | GK Activation Rate |
| --- | --- |
| COC[C@H](C)Oc1cc(Oc2ccc(S(C)(=O)=O)cc2)cc(-c2ccc(C(C)=O)[nH]2)c1 [Example 15, 1-(5-{3-[(1S)-2-Methoxy-1-methylethoxy]-5-[4-(methylsulfonyl)phenoxy]phenyl}-1H-pyrrol-2-yl)ethanone] | 1.6 |
| COC[C@H](C)Oc1cc(Oc2ccc(C(=O)N3CCCC3)cc2F)cc(-c2ccc(-c3nccs3)[nH]2)c1 [Example 47, 2-(5-{3-[2-Fluoro-4-(pyrrolidin-1-ylcarbonyl)phenoxy]-5-[(1S)-2-methoxy-1-methylethoxy]phenyl}-1H-pyrrol-2-yl)-1,3-thiazole] | 2.0 |
| COC[C@H](C)Oc1cc(Oc2cnc(S(C)(=O)=O)cn2)cc(-c2ccc(C3=NC(O)[C@H](C)O3)[nH]2)c1 (stereo partly drawn) [Example 103, (5S)-2-[5-(3-[(1S)-2-Methoxy-1-methylethoxy]-5-{[5-(methylsulfonyl)pyrazin-2-yl]oxy}phenyl)-1H-pyrrol-2-yl]-5-methyl-4,5-dihydro-1,3-oxazol-4-ol] | 2.1 |
| COC[C@H](C)Oc1cc(Oc2ccc(S(C)(=O)=O)cc2)cc(-c2ccc(-c3ncc(C)s3)[nH]2)c1 [Example 3, 2-(5-{3-[(1S)-2-Methoxy-1-methylethoxy]-5-[4-(methylsulfonyl)phenoxy]phenyl}-1H-pyrrol-2-yl)-5-methyl-1,3-thiazole] | 1.9 |
| Cc1nnc(-c2ccc(-c3cc(Oc4ccc(S(C)(=O)=O)nc4)cc(O[C@@H](C)CO)c3)[nH]2)o1 [Example 81, (2S)-2-(3-[5-(5-Methyl-1,3,4-oxadiazol-2-yl)-1H-pyrrol-2-yl]-5-{[6-(methylsulfonyl)pyridin-3-yl]oxy}phenoxy)propan-1-ol] | 2.2 |
| CC[C@@H]1COC(c2ccc(-c3cc(Oc4cnc(S(C)(=O)=O)cn4)cc(O[C@@H](C)CO)c3)[nH]2)=N1 [Example 108, (2S)-2-(3-{5-[(4R)-4-Ethyl-4,5-dihydro-1,3-oxazol-2-yl]-1H-pyrrol-2-yl}-5-{[5-(methylsulfonyl)pyrazin-2-yl]oxy}phenoxy)propan-1-ol] | 2.0 |
| C[C@H]1CN=C(c2ccc(-c3cc(Oc4ncc(C(=O)N5CCC5)cc4Cl)cc(O[C@@H](C)CO)c3)[nH]2)O1 [Example 75, (2S)-2-(3-{[5-(Azetidin-1-ylcarbonyl)-3-chloropyridin-2-yl]oxy}-5-{5-[(5S)-5-methyl-4,5-dihydro-1,3-oxazol-2-yl]-1H-pyrrol-2-yl}phenoxy)propan-1-ol] | 1.8 |
| C[C@H]1CN=C(c2ccc(-c3cc(Oc4cnc(S(C)(=O)=O)cn4)cc(O[C@@H](C)CO)c3)[nH]2)O1 [Example 100, (2S)-2-(3-{5-[(5S)-5-Methyl-4,5-dihydro-1,3-oxazol-2-yl]-1H-pyrrol-2-yl}-5-{[5-(methylsulfonyl)pyrazin-2-yl]oxy}phenoxy)propan-1-ol] | 1.9 |
| C[C@@H]1OC(c2ccc(-c3cc(Oc4ccc(S(C)(=O)=O)nc4)cc(O[C@@H](C)CO)c3)[nH]2)=N[C@@H]1C [Example 88, (2S)-2-(3-{5-[(4R,5S)-4,5-Dimethyl-4,5-dihydro-1,3-oxazol-2-yl]-1H-pyrrol-2-yl}-5-{[6-(methylsulfonyl)pyridin-3-yl]oxy}phenoxy)propan-1-ol] | 2.4 |
| C[C@H]1CN=C(c2ccc(-c3cc(Oc4ccc(C(=O)N5CCC5)cc4F)cc(O[C@@H](C)CO)c3)[nH]2)O1 [Example 70, (2S)-2-(3-[4-(Azetidin-1-ylcarbonyl)-2-fluorophenoxy]-5-{5-[(5S)-5-methyl-4,5-dihydro-1,3-oxazol-2-yl}-1H-pyrrol-2-yl]phenoxy)propan-1-ol] | 1.9 |
| COC[C@H](C)Oc1cc(Oc2ccc(S(C)(=O)=O)cc2)cc(-c2ccc(C3=NCCO3)[nH]2)c1 [Example 20, 2-(5-{3-[(1S)-2-Methoxy-1-methylethoxy]-5-[4-(methylsulfonyl)phenoxy]phenyl}-1H-pyrrol-2-yl)-4,5-dihydro-1,3-oxazole] | 2.0 |
| Cc1nnc(-c2ccc(-c3cc(Oc4ccc(C(=O)N5CCC5)cc4F)cc(O[C@@H](C)CO)c3)[nH]2)o1 [Example 67, (2S)-2-{3-[4-(Azetidin-1-ylcarbonyl)-2-fluorophenoxy]-5-[5-(5-methyl-1,3,4-oxadiazol-2-yl)-1H-pyrrol-2-yl]phenoxy}propan-1-ol] | 1.7 |

The next lines start with the values.

| GK Activation Rate | Structure (SMILES) |
| --- | --- |
| 2.6 | COC[C@H](C)Oc1cc(Oc2ccc(S(C)(=O)=O)nc2)cc(-c2ccc(C3=N[C@H](CO)[C@H](C)O3)[nH]2)c1 [Example 91, {(4R,5S)-2-[5-(3-[(1S)-2-Methoxy-1-methylethoxy]-5-{[6-(methylsulfonyl)pyridin-3-yl]oxy}phenyl)-1H-pyrrol-2-yl]-5-methyl-4,5-dihydro-1,3-oxazol-4-yl}methanol] |
| 2.4 | CNS(=O)(=O)c1ccc(Oc2cc(O[C@@H](C)COC)cc(-c3ccc(C4=NC[C@H](CO)O4)[nH]3)c2)cn1 [Example 127, 5-(3-{5-[(5R)-5-(Hydroxymethyl)-4,5-dihydro-1,3-oxazol-2-yl]-1H-pyrrol-2-yl}-5-[(1S)-2-methoxy-1-methylethoxy]phenoxy)-N-methylpyridine-2-sulfonamide] |
| 2.0 | C[C@H]1CN=C(c2ccc(-c3cc(Oc4ccc(S(C)(=O)=O)cc4)cc(O[C@@H](C)CO)c3)[nH]2)O1 [Example 32, (2S)-2-(3-{5-[(5S)-5-Methyl-4,5-dihydro-1,3-oxazol-2-yl]-1H-pyrrol-2-yl}-5-[4-(methylsulfonyl)phenoxy]phenoxy)propan-1-ol] |
| 2.5 | CNS(=O)(=O)c1ccc(Oc2cc(O[C@@H](C)CO)cc(-c3ccc(C4=NC[C@H](C)O4)[nH]3)c2)cn1 [Example 122, 5-(3-[(1S)-2-Hydroxy-1-methylethoxy]-5-{5-[(5S)-5-methyl-4,5-dihydro-1,3-oxazol-2-yl]-1H-pyrrol-2-yl}phenoxy)-N-methylpyridine-2-sulfonamide] |
| 3.0 | COC[C@H](C)Oc1cc(Oc2ccc(S(C)(=O)=O)nc2)cc(-c2ccc(C3=NC[C@H](C)O3)[nH]2)c1 [Example 76, 5-(3-[(1S)-2-Methoxy-1-methylethoxy]-5-{5-[(5S)-5-methyl-4,5-dihydro-1,3-oxazol-2-yl]-1,4-pyrrol-2-yl}phenoxy)-2-(methylsulfonyl)pyridine] |
| 2.6 | C[C@H]1CN=C(c2ccc(-c3cc(Oc4ccc(S(C)(=O)=O)nc4)cc(O[C@@H](C)CO)c3)[nH]2)O1 [Example 77, (2S)-2-(3-{5-[(5S)-5-Methyl-4,5-dihydro-1,3-oxazol-2-yl]-1H-pyrrol-2-yl}-5-{[6-(methylsulfonyl)pyridin-3-yl]oxy}phenoxy)propan-1-ol] |
| 2.7 | COC[C@H](C)Oc1cc(Oc2ccc(S(C)(=O)=O)nc2)cc(-c2ccc(C3=NC[C@H](CO)O3)[nH]2)c1 [Example 82, {(5R)-2-[5-(3-[(1S)-2-Methoxy-1-methylethoxy]-5-{[6-(methylsulfonyl)pyridin-3-yl]oxy}phenyl)-1H-pyrrol-2-yl]-4,5-dihydro-1,3-oxazol-5-yl}methanol] |
| 2.1 | COC[C@H](C)Oc1cc(Oc2ccc(S(C)(=O)=O)cc2)cc(-c2ccc(C3=NC[C@H](CO)O3)[nH]2)c1 [Example 35, [(5R)-2-(5-{3-[(1S)-2-Methoxy-1-methylethoxy]-5-[4-(methylsulfonyl)phenoxy]phenyl}-1H-pyrrol-2-yl)-4,5-dihydro-1,3-oxazol-5-yl]methanol] |
| 2.6 | CNC(=O)c1ccc(Oc2cc(O[C@@H](C)COC)cc(-c3ccc(C4=NC[C@H](CO)O4)[nH]3)c2)cn1 [Example 126, 5-(3-{5-[(5R)-5-(Hydroxymethyl)-4,5-dihydro-1,3-oxazol-2-yl]-1H-pyrrol-2-yl}-5-[(1S)-2-methoxy-1-methylethoxy]phenoxy)-N-methylpyridine-2-carboxamide] |
| 2.7 | C[C@@H]1COC(c2ccc(-c3cc(Oc4ccc(S(C)(=O)=O)nc4)cc(O[C@@H](C)CO)c3)[nH]2)=N1 [Example 84, (2S)-2-(3-{5-[(4R)-4-Methyl-4,5-dihydro-1,3-oxazol-2-yl]-1H-pyrrol-2-yl}-5-{-[6-(methylsulfonyl)pyridin-3-yl]oxy}phenoxy)propan-1-ol] |
